This is an account of results in ChEMBL document CHEMBL4043295, “Marbostat-100 Defines a New Class of Potent and Selective Antiinflammatory and Antirheumatic Histone Deacetylase 6 Inhibitors” (J Med Chem, 2018).

One data set has as its target Histone deacetylase 2 (Homo sapiens, UniProt Q92769). Description: Inhibition of full length recombinant human C-terminal GST-tagged HDAC2 expressed in baculovirus-infected insect cells using RHKK(Ac)AMC as substrate after 60 mins by fluorimeter.
Another data set deals with Mus musculus. Description: Toxicity in DBA/1J mouse collagen-induced arthritis model assessed as effect on hemoglobin concentration at 30 mg/kg, ip administered every morning for 12 to 14 days measured post last dose relative to vehicle-treated control. Format: organism-based. Particulars: in vivo.
For data set [1], the target named is T1, Protein deacetylase HDAC6 (Homo sapiens) (UniProt Q9UBN7).
T1 sequence (whole entry): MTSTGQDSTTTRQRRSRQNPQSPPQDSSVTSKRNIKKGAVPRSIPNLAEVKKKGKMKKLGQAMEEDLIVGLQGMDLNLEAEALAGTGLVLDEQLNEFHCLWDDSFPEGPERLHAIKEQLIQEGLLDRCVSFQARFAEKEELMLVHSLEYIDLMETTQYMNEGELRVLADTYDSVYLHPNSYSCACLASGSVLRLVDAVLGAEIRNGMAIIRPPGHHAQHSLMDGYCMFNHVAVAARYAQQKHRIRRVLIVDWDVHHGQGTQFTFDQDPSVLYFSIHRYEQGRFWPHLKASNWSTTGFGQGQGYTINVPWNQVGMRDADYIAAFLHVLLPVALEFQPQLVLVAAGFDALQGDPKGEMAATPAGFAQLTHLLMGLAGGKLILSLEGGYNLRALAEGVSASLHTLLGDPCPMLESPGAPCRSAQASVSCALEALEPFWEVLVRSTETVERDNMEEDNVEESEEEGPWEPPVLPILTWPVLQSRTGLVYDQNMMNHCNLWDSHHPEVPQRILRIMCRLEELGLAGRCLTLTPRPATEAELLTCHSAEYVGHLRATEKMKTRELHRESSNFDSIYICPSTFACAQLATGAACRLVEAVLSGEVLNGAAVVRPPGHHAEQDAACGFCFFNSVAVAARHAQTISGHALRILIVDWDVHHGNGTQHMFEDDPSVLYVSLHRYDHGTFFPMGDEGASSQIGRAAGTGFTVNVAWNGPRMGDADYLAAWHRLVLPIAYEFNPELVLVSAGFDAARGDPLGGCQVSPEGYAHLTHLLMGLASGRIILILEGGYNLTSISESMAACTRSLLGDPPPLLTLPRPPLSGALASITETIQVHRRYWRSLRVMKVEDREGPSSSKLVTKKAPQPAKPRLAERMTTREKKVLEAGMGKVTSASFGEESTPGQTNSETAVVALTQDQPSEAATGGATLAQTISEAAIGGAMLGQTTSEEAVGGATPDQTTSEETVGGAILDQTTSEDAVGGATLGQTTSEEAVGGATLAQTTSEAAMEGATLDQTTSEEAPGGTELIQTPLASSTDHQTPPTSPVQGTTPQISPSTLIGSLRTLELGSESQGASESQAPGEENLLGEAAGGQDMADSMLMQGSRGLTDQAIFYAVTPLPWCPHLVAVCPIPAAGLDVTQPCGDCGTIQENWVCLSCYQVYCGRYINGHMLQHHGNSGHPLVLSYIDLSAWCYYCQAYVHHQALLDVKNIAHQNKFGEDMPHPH
Particulars: 5 to 1000 nM.
Description: Inhibition of HDAC6 in human HEL cells assessed as induction of alpha-tubulin hyperacetylation at 5 to 1000 nM after 24 hrs by Western blot method

The target in data set [2] is T1, Protein deacetylase HDAC6 (Homo sapiens). The following applies: 50 nM.
Description: Inhibition of HDAC6 in human BV173 cells assessed as induction of alpha-tubulin hyperacetylation at 50 nM after 10 mins to 48 hrs by Western blot method
Data set [3] has the same target. The following applies: 50 nM. This is another data set of the same source.
Description: Inhibition of HDAC6 in human MV4-11 cells assessed as induction of alpha-tubulin hyperacetylation at 50 nM after 2 to 24 hrs by Western blot method

Calls of active or inactive are those of the source. The rule behind the calls is not given here.

Histone deacetylase 2, sequence (Q92769 whole entry): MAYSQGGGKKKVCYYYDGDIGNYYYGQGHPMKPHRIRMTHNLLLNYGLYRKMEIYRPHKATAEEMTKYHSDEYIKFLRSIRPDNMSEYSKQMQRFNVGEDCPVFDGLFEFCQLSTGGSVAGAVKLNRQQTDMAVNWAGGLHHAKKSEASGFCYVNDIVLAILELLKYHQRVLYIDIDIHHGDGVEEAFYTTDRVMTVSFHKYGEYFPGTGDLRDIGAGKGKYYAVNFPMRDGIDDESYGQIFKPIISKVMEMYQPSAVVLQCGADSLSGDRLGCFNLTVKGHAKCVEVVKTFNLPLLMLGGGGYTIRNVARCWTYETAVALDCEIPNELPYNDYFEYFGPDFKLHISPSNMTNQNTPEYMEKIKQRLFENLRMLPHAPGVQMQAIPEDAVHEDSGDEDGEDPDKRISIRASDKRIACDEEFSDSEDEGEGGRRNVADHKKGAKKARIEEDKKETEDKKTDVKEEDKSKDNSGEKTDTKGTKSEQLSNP

What is called Ki is the dissociation constant of the complex between target and ligand, obtained from inhibition or displacement. Turning to `CN1C(=O)C2CN(Cc3c2c2ccccc2n3Cc2ccc(C(=O)NO)cc2)C1=O` (stereo not given), the inhibitory constant (Ki) at Histone deacetylase 2 was 774 nM. Also, the Activity result with Mus musculus is listed as “Non-Toxic”. In addition, the inhibition entry in data set [1], in data set [2] and in data set [3] was “Active” each time.
